In the supplement of paper PMC10307832:

Legend:
Experiment in all cases: relative viability (nuclei count vs DMSO), 5 days (fraction); higher = more cells survive
A-427 = tested on: A-427
In short: (§1)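 Medians of duplicate plates are given as relative viability. That measure is the nuclei count in treated wells divided by the count in vehicle wells. Counts were taken on 4× images of lung cancer cell lines in 1536-well plates, 5 days after pin-tool dosing the day after seeding with one drug alone or a fixed anchor-drug dose plus five library-drug doses (not always all listed) in √10 steps.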

CAL-12T = tested on: CAL-12T
In short: as §1

COR-L 105 = tested on: COR-L 105
In short: as §1

EMC-BAC-2 = tested on: EMC-BAC-2
In short: as §1

HARA = tested on: HARA
In short: as §1

HCC-366 = tested on: HCC-366
In short: as §1

HCC-827 = tested on: HCC-827
In short: as §1

HOP-62 = tested on: HOP-62
In short: as §1

LCLC-103H = tested on: LCLC-103H
In short: as §1

NCI-H1395 = tested on: NCI-H1395
In short: as §1

NCI-H1437 = tested on: NCI-H1437
In short: as §1

NCI-H1755 = tested on: NCI-H1755
In short: as §1

NCI-H1792 = tested on: NCI-H1792
In short: as §1

NCI-H1915 = tested on: NCI-H1915
In short: as §1

NCI-H2009 = tested on: NCI-H2009
In short: as §1

NCI-H2228 = tested on: NCI-H2228
In short: as §1

NCI-H23 = tested on: NCI-H23
In short: as §1

NCI-H460 = tested on: NCI-H460
In short: as §1

NCI-H522 = tested on: NCI-H522
In short: as §1

NCI-H727 = tested on: NCI-H727
In short: as §1

SK-LU-1 = tested on: SK-LU-1
In short: as §1

SW 1573 = tested on: SW 1573
In short: as §1

What does the source list for `CC(=O)O[C@@]12CO[C@@H]1C[C@H](O)[C@@]1(C)C(=O)[C@H](O)C3=C(C)[C@@H](OC(=O)[C@H](O)[C@@H](NC(=O)OC(C)(C)C)c4ccccc4)C[C@@](O)([C@@H](OC(=O)c4ccccc4)[C@H]21)C3(C)C` [Docetaxel] + N=C(N)NC(=N)NCCc1ccccc1 [Phenformin] (partner 250 µM)?
relative viability (A-427; first compound 0.0002 µM): 0.324; relative viability (A-427; first compound 0.000632 µM): 0.328; relative viability (A-427; first compound 0.002 µM): 0.165; relative viability (A-427; first compound 0.006325 µM): 0.149; relative viability (A-427; first compound 0.02 µM): 0.12; relative viability (CAL-12T; first compound 0.0002 µM): 0.522; relative viability (CAL-12T; first compound 0.000632 µM): 0.305; relative viability (CAL-12T; first compound 0.002 µM): 0.185; relative viability (CAL-12T; first compound 0.006325 µM): 0.135; relative viability (CAL-12T; first compound 0.02 µM): 0.118; relative viability (COR-L 105; first compound 0.0002 µM): 0.431; relative viability (COR-L 105; first compound 0.000632 µM): 0.392; relative viability (COR-L 105; first compound 0.002 µM): 0.279; relative viability (COR-L 105; first compound 0.006325 µM): 0.267; relative viability (COR-L 105; first compound 0.02 µM): 0.247; relative viability (EMC-BAC-2; first compound 0.0002 µM): 0.509; relative viability (EMC-BAC-2; first compound 0.000632 µM): 0.412; relative viability (EMC-BAC-2; first compound 0.002 µM): 0.306; relative viability (EMC-BAC-2; first compound 0.006325 µM): 0.278; relative viability (EMC-BAC-2; first compound 0.02 µM): 0.177; relative viability (HARA; first compound 0.0002 µM): 0.387; relative viability (HARA; first compound 0.000632 µM): 0.19; relative viability (HARA; first compound 0.002 µM): 0.0801; relative viability (HARA; first compound 0.006325 µM): 0.0508; relative viability (HARA; first compound 0.02 µM): 0.0419; relative viability (HCC-366; first compound 0.0002 µM): 0.599; relative viability (HCC-366; first compound 0.000632 µM): 0.253; relative viability (HCC-366; first compound 0.002 µM): 0.147; relative viability (HCC-366; first compound 0.006325 µM): 0.0428; relative viability (HCC-366; first compound 0.02 µM): 0.0275; relative viability (HCC-827; first compound 0.0002 µM): 0.392; relative viability (HCC-827; first compound 0.000632 µM): 0.426; relative viability (HCC-827; first compound 0.002 µM): 0.357; relative viability (HCC-827; first compound 0.006325 µM): 0.247; relative viability (HCC-827; first compound 0.02 µM): 0.213; relative viability (HOP-62; first compound 0.0002 µM): 0.671; relative viability (HOP-62; first compound 0.000632 µM): 0.501; relative viability (HOP-62; first compound 0.002 µM): 0.322; relative viability (LCLC-103H; first compound 0.0002 µM): 0.347; relative viability (LCLC-103H; first compound 0.000632 µM): 0.344; relative viability (LCLC-103H; first compound 0.002 µM): 0.308; relative viability (LCLC-103H; first compound 0.006325 µM): 0.282; relative viability (LCLC-103H; first compound 0.02 µM): 0.248; relative viability (NCI-H1395; first compound 0.0002 µM): 0.434; relative viability (NCI-H1395; first compound 0.000632 µM): 0.45; relative viability (NCI-H1395; first compound 0.002 µM): 0.442; relative viability (NCI-H1395; first compound 0.006325 µM): 0.283; relative viability (NCI-H1395; first compound 0.02 µM): 0.334; relative viability (NCI-H1437; first compound 0.0002 µM): 0.3; relative viability (NCI-H1437; first compound 0.000632 µM): 0.294; relative viability (NCI-H1437; first compound 0.002 µM): 0.23; relative viability (NCI-H1437; first compound 0.006325 µM): 0.154; relative viability (NCI-H1437; first compound 0.02 µM): 0.123; relative viability (NCI-H1755; first compound 0.0002 µM): 0.621; relative viability (NCI-H1755; first compound 0.000632 µM): 0.577; relative viability (NCI-H1755; first compound 0.002 µM): 0.411; relative viability (NCI-H1755; first compound 0.006325 µM): 0.434; relative viability (NCI-H1755; first compound 0.02 µM): 0.36; relative viability (NCI-H1792; first compound 0.0002 µM): 0.221; relative viability (NCI-H1792; first compound 0.000632 µM): 0.23; relative viability (NCI-H1792; first compound 0.002 µM): 0.0848; relative viability (NCI-H1792; first compound 0.006325 µM): 0.126; relative viability (NCI-H1792; first compound 0.02 µM): 0.0575; relative viability (NCI-H1915; first compound 0.0002 µM): 0.364; relative viability (NCI-H1915; first compound 0.000632 µM): 0.312; relative viability (NCI-H1915; first compound 0.002 µM): 0.21; relative viability (NCI-H1915; first compound 0.006325 µM): 0.147; relative viability (NCI-H1915; first compound 0.02 µM): 0.116; relative viability (NCI-H2009; first compound 0.0002 µM): 0.483; relative viability (NCI-H2009; first compound 0.000632 µM): 0.526; relative viability (NCI-H2009; first compound 0.002 µM): 0.463; relative viability (NCI-H2009; first compound 0.006325 µM): 0.321; relative viability (NCI-H2009; first compound 0.02 µM): 0.202; relative viability (NCI-H2228; first compound 0.0002 µM): 0.302; relative viability (NCI-H2228; first compound 0.000632 µM): 0.173; relative viability (NCI-H2228; first compound 0.002 µM): 0.147; relative viability (NCI-H2228; first compound 0.006325 µM): 0.158; relative viability (NCI-H2228; first compound 0.02 µM): 0.123; relative viability (NCI-H23; first compound 0.0002 µM): 0.801; relative viability (NCI-H23; first compound 0.000632 µM): 0.702; relative viability (NCI-H23; first compound 0.002 µM): 0.475; relative viability (NCI-H23; first compound 0.006325 µM): 0.2; relative viability (NCI-H23; first compound 0.02 µM): 0.121; relative viability (NCI-H460; first compound 0.0002 µM): 0.481; relative viability (NCI-H460; first compound 0.000632 µM): 0.351; relative viability (NCI-H460; first compound 0.002 µM): 0.0311; relative viability (NCI-H460; first compound 0.006325 µM): 0.0221; relative viability (NCI-H460; first compound 0.02 µM): 0.0125; relative viability (NCI-H522; first compound 0.0002 µM): 0.611; relative viability (NCI-H522; first compound 0.000632 µM): 0.433; relative viability (NCI-H522; first compound 0.002 µM): 0.527; relative viability (NCI-H522; first compound 0.006325 µM): 0.55; relative viability (NCI-H522; first compound 0.02 µM): 0.471; relative viability (NCI-H727; first compound 0.0002 µM): 0.49; relative viability (NCI-H727; first compound 0.000632 µM): 0.601; relative viability (NCI-H727; first compound 0.002 µM): 0.457; relative viability (NCI-H727; first compound 0.006325 µM): 0.472; relative viability (NCI-H727; first compound 0.02 µM): 0.354; relative viability (SK-LU-1; first compound 0.0002 µM): 0.48; relative viability (SK-LU-1; first compound 0.000632 µM): 0.285; relative viability (SK-LU-1; first compound 0.002 µM): 0.239; relative viability (SK-LU-1; first compound 0.006325 µM): 0.183; relative viability (SK-LU-1; first compound 0.02 µM): 0.115; relative viability (SW 1573; first compound 0.0002 µM): 0.311; relative viability (SW 1573; first compound 0.000632 µM): 0.344; relative viability (SW 1573; first compound 0.002 µM): 0.159; relative viability (SW 1573; first compound 0.02 µM): 0.119
